# In patent US7393662B2, “Human EPO mimetic hinge core mimetibodies, compositions, methods and uses” (Centocor, Inc., priority 2004, dated 2008):
# Tests used:
# EPO receptor = target: T1, EPO receptor (Homo sapiens, UniProt P19235); conditions: cited from earlier work
# T1 sequence (P19235 25-508): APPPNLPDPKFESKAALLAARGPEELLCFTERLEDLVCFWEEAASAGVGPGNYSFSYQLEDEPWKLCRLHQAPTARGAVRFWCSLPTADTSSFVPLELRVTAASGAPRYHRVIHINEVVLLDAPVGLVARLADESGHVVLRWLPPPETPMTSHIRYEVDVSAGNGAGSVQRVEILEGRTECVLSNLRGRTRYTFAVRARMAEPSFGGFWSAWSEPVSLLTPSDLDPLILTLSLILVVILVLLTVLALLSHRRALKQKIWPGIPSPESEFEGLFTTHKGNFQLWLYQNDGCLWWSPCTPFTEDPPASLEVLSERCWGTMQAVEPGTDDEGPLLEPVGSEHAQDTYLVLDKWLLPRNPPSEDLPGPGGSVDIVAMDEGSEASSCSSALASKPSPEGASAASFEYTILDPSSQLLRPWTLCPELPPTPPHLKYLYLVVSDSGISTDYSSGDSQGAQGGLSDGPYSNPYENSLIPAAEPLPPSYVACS
# [1] = in 50% serum; cited from earlier work
# [2] = cited from earlier work
# [3] = tested on: EPO dependent UT-7/EPO cell line; test: in vitro bioactivity (cell proliferation/viability, MTS) assay in EPO dependent UT-7/EPO cells; type: cell-based, human; conditions: for activity/potency, fold greater than the EMP-1 peptide: viability 48 hours after treatment, molar basis; for activity compared with rHuEPO: in vitro cell proliferation assay
# Protocol: The activity of EMP-Hinge core mimetibody was first tested in an in vitro bioactivity assay. For this assay, the EPO dependent UT-7/EPO cell line, derived from a patient with acute megakaryoblastic leukemia, was used (Komatsu et al., 1993, Blood, vol. 82 (2), 456-464). These cells undergo programmed cell death 48 to 72 hours after withdraw from media supplemented with rHuEPO. Cells that have been incubated in the absence of rHuEPO for 24 hours can be saved if treated with rHuEPO or an EPO agonist. EMP-Hinge core mimetibody was added to cells starved without rHuEPO and cell viability was determined 48 hours after treatment using the tetrazolium compound MTS (CellTiter 96 Aqueous One Solution, Promega) that is metabolized by living cells to yield a product with an absorbance that can be measured. […] In addition, these same cells were stimulated with EMP-Hinge core mimetibody and tyrosine phosphorylation patterns visualized by running cell lysate through a polyacrylamide gel.
# normal mice = test: in vivo effects on erythropoiesis (hematocrit) in normal mice; conditions: for duration of response (elevated hematocrit) compared with rHuEPO / maximal hematocrit / maximal response compared with rHuEPO: normal mice, equal activity units / dosed equally
# Source text: A specific, non-limiting, example of this invention is the EMP-hinge core mimetibody construct where V is the first several N-terminal amino acids of a naturally occurring HC or LC antibody, P is a single copy of the bioactive EMP-1 peptide and L is a tandem repeat of either Gly-Ser or Gly-Gly-Gly-Ser flexible linker, H is a hinge core region and CH2 & CH3 are of the IgG1 or IgG4 isotype subclass. It is thought that this structure will constrain the EMP-1 peptide, but allow sufficient flexibility such that the dimerization of the peptides as part of the assembled homodimer is stabilized. […] This construct is efficiently secreted from cells and appears to be properly folded; overcoming problems associated with 1st generation mimetibodies.
# (§1) In vivo studies were done in normal mice to compare the half-life of EMP-Hinge core mimetibody to that of rHuEPO and to compare their effects on erythropoiesis.
# [4] = serum concentration by ELISA / half-life in normal mice; type: in vivo; conditions: serum concentrations by ELISA
# Protocol: as §1
# The serum concentrations of both rHuEPO and EMP-Hinge core mimetibody were measured by ELISA.
# [5] = tested on: cells that express the EPO receptor; test: complement lysis of cells that express the EPO receptor (immune effector function); type: cell-based
# Source text: It has been shown that mutation of two […] (L) residues, L234 & L235, in the IgG1 lower hinge region to alanine (A) will abrogate the ability of the immunoglobulin to mediate complement dependent cytotoxicity (CDC) and antibody dependant cellular cytotoxicity (ADCC) (Hezereh et al., 2001, J. Virol., vol. 75 (24), 12161-68). […] This may be due to the low number of receptors that are found on erythroid progenitor cells.
# [6] = listed as EMP-Hinge core mimetibody
substance,measurement,setting,value
GGTYSCHFGPLTWVCKPQGG [EMP-1],"activity, fold less than HuEPO",EPO receptor,"10,000 to 100,000 fold"
same,ex-vivo half-life,[1],8 h
"erythropoietin: glycoprotein hormone of 165 amino acids and four carbohydrate chains, primary regulator of erythropoiesis",time at which peak serum levels are achieved,[2]; after subcutaneous administration,5 to 24 h
same,circulating half-life,"[2]; intravenously administered, patients with CRF",3 to 4 h
same,detectable levels of plasma erythropoietin maintained,[2]; within the therapeutic dose range,at least 24 hours
EMP-hinge core mimetibody: V (QIQ)-EMP-1 peptide-GS or GGGS linker-hinge core CPPCP-CH2-CH3 of IgG1 or IgG4; assembled homodimer,"potency, fold less than rHuEPO","[3]; UT-7/EPO cells, on a molar basis",5 fold
same,"activity/potency, fold greater than the EMP-1 peptide",[3]; UT-7/EPO cells,more than 500 fold
same,"activity/potency, fold greater than the EMP-1 peptide","[3]; UT-7/EPO cells, listed as EMP-Hinge core mimetibody",500 fold
same,activity compared with rHuEPO,[3],substantially similar
same,activity compared with rHuEPO,[3]; [6],in the range of rHuEPO
same,change in hematocrit (in vivo expansion of erythroid progenitors),normal mice; in vivo,significant increases in hematocrit
same,duration of response (elevated hematocrit) compared with rHuEPO,normal mice,elevated levels are maintained for a longer period
same,maximal hematocrit / maximal response compared with rHuEPO,normal mice,significantly higher
same,duration of response (elevated hematocrit) compared with rHuEPO,normal mice; [6],prolonged
same,maximal hematocrit / maximal response compared with rHuEPO,normal mice; [6],higher maximal response
same,approximate half-life relative to rHuEPO,[4],at least several times
same,effector function associated effects,[5],no effector function associated affects have been observed
same,complement lysis of cells that express the EPO receptor,[5]; preliminary studies,does not mediate complement lysis
